Reference: PMC9925730, “Controlled sequential in situ self-assembly and disassembly of a fluorogenic cisplatin prodrug for cancer theranostics” (Nature Communications, 2023)
Several values for one entry are separate records, joined by “and”; a condition that tells them apart may be missing. Identical values can stand only once. Like-named read-outs stand apart in the source and are kept apart here.

Assays:
[1] = LogP measurement in solutions; assay type: physicochemical; settings: octanol / octanol-saturated water
Description: incompatibility between particles i and j. Considering the relative position and chemical components of all the beads, we always keep aAB = aAC = 28, aAS = aCS = 25, and aBS = 35. The concentration of ABC or AB is fixed at 0.03. We performed the dynamics of total 81 000 DPD beads in a cubic box (303) under the periodic boundary conditions.
In these conditions, we carry out 1.0 × 106 steps for each simulation.
Molecular simulation using the Materials Studio program. For each molecule, the most favourable crystal packing was predicted using the Polymorph module as implemented in Materials Studio. The crystal structure prediction protocol includes three parts, Packing, Geometry Optimization and Clustering. […]
Evaluation of the dephosphorylated efficacy of P-CyPt towards ALP. […] The resulting fluorescence intensities in each well in the first 30 minutes were recorded on a Spark™ 10M Multimode Microplate Reader (λex/em = 680/710 nm), and every two-minute intervals record one point. The amount of CyPt at each time point was determined by a standard curve under the same […]
LogP measurement in solutions. […] The UV-vis absorption spectroscopy or fluorescence spectrum was recorded after being diluted in MeOH/H2O (1:1) system (<1% octanol). The logP value was calculated by dividing the amount in the octanol layer to […]

[2] = tested on: HEK-293T cells; assay: Cytotoxicity, MTT assay; assay type: cell-based, human; parameters: key to cell viability, mean: % viability = OD / OD of untreated control
Protocol: (§1) HeLa cells were seeded on flat-bottomed 96-well plates (5000 cells per well) and incubated at 37 °C overnight. Varying concentrations of P-CyPt, Pt^IVNPs or CDDP (0, 1, 2, 5, 10, 20, 30, 50, 100, and 200 μM) in DMEM medium (100 μL) were added. Cells were either incubated for 48 h, or firstly incubated with these three compounds for 2 h, washed with PBS and then incubated with refreshed blank DMEM medium for another 48 h. Then, 3-(4,5)-dimethylthiahiazo (-z-y1)−3,5-di-phenytetrazoliumromide (MTT, 50 μL, 1 mg /mL in PBS) was added into each well. The cells were kept at 37 °C for 4 h, and the solution in each well was carefully removed, followed by addition of dimethyl sulfoxide (DMSO, 150 μL). The absorbance (OD) at 490 nm in each well was acquired on the microplate reader (Tcan). The absorbance of non-treated blank cells (OD control) was used as the control. The percentage of cell viability was calculated by dividing OD to the OD control. […]
(§2) Supplementary Table 4. The IC50 (μM) value of different Pt drugs toward HeLa, HepG2 and HEK-293T cells.a
(§3) Compounds Condition IC50 (μM) HeLa HepG2 HEK-293T […]
(§4) a The IC50 values were measured by the MTT assay. Values denote mean ± s.d. (n = 3 independent experiments). b Cells were incubated with varying concentrations of CDDP, P-CyPt or PtIVNPs for […]
(§5) c Cells were incubated with varying concentrations of CDDP, P-CyPt or PtIVNPs for 2 h, and the mediums were removed, washed with PBS. Blank culture mediums were added, and the cells were kept incubation for another 48 h.

[3] = tested on: HeLa cells; assay: Cytotoxicity, MTT assay; assay type: cell-based, human; parameters: key to cell viability, mean: % viability = OD / OD of untreated control
Protocol: as §1, §2, §3, §4, §5

## CC1(C)C(/C=C/C2=C3Oc4cc(OP(=O)(O)O)c(Cl)cc4C=C3CCC2)=[N+](CCCNC(=O)[C@@H](Cc2ccccc2)NC(=O)[C@@H](Cc2ccccc2)NC(=O)CCC(=O)[O][Pt]([NH2])([NH2])([OH])([Cl])[Cl])c2ccccc21 [P-CyPt]
[1]
  LogP value: 0.68 ± 0.03
[2]; HEK-293T, 2+48 h, individual samples, read-out: IC50-2+48h
  IC50: > 200 µM
[2]; HEK-293T, 2+48 h, mean of 3 samples, read-out: IC50-2+48h
  IC50: > 200 µM
[2]; HEK-293T, 48 h, individual samples, read-out: IC50-48h
  IC50: 43.8 µM and 50.3 µM and 51.8 µM
[2]; Supplementary Fig. 23 (c), concentration 1 μM
  cell viability, mean: 98.4753
[2]; Supplementary Fig. 23 (c), concentration 2 μM
  cell viability, mean: 94.8818
[2]; Supplementary Fig. 23 (c), concentration 5 μM
  cell viability, mean: 91.0944
[2]; Supplementary Fig. 23 (c), concentration 10 μM
  cell viability, mean: 84.8089
[2]; Supplementary Fig. 23 (c), concentration 20 μM
  cell viability, mean: 73.4808
[2]; Supplementary Fig. 23 (c), concentration 30 μM
  cell viability, mean: 62.5624
[2]; Supplementary Fig. 23 (c), concentration 50 μM
  cell viability, mean: 47.5251
[2]; Supplementary Fig. 23 (c), concentration 100 μM
  cell viability, mean: 31.456
[2]; Supplementary Fig. 23 (c), concentration 200 μM
  cell viability, mean: 17.421
[2]; Supplementary Fig. 24 (c), concentration 1 μM
  cell viability, mean: 97.0705
[2]; Supplementary Fig. 24 (c), concentration 2 μM
  cell viability, mean: 99.2124
[2]; Supplementary Fig. 24 (c), concentration 5 μM
  cell viability, mean: 98.6059
[2]; Supplementary Fig. 24 (c), concentration 10 μM
  cell viability, mean: 96.2404
[2]; Supplementary Fig. 24 (c), concentration 20 μM
  cell viability, mean: 97.2347
[2]; Supplementary Fig. 24 (c), concentration 30 μM
  cell viability, mean: 96.0142
[2]; Supplementary Fig. 24 (c), concentration 50 μM
  cell viability, mean: 92.8073
[2]; Supplementary Fig. 24 (c), concentration 100 μM
  cell viability, mean: 92.5552
[2]; Supplementary Fig. 24 (c), concentration 200 μM
  cell viability, mean: 88.5457
[2]; Supplementary Fig. 24 (c), read-out: IC50
  IC50: > 200 µM
[2]; incubated 2 h, then blank medium 48 h, MTT, read-out: IC50 HEK-293T
  IC50: > 200 µM
[2]; incubated 48 h, MTT, read-out: IC50 HEK-293T
  IC50: 48.6 ± 4.24 µM
[3]; HeLa, 2+48 h, individual samples, read-out: IC50-2+48h
  IC50: 14.2 µM and 15.9 µM and 13.5 µM
[3]; HeLa, 2+48 h, mean of 3 samples, read-out: IC50-2+48h
  IC50: 14.6 µM
[3]; HeLa, 48 h, individual samples, read-out: IC50-48h
  IC50: 5.97 µM and 7.11 µM and 7.21 µM
[3]; Supplementary Fig. 23 (a), concentration 1 μM
  cell viability, mean: 92.8903
[3]; Supplementary Fig. 23 (a), concentration 2 μM
  cell viability, mean: 79.6162
[3]; Supplementary Fig. 23 (a), concentration 5 μM
  cell viability, mean: 58.6671
[3]; Supplementary Fig. 23 (a), concentration 10 μM
  cell viability, mean: 35.0547
[3]; Supplementary Fig. 23 (a), concentration 20 μM
  cell viability, mean: 22.3775
[3]; Supplementary Fig. 23 (a), concentration 30 μM
  cell viability, mean: 18.41
[3]; Supplementary Fig. 23 (a), concentration 50 μM
  cell viability, mean: 13.1166
[3]; Supplementary Fig. 23 (a), concentration 100 μM
  cell viability, mean: 9.42
[3]; Supplementary Fig. 23 (a), concentration 200 μM
  cell viability, mean: 5.73
[3]; Supplementary Fig. 23 (a), read-out: IC50
  IC50: 6.76 µM
[3]; Supplementary Fig. 24 (a), concentration 1 μM
  cell viability, mean: 94.9375
[3]; Supplementary Fig. 24 (a), concentration 2 μM
  cell viability, mean: 87.7526
[3]; Supplementary Fig. 24 (a), concentration 5 μM
  cell viability, mean: 73.6215
[3]; Supplementary Fig. 24 (a), concentration 10 μM
  cell viability, mean: 60.3727
[3]; Supplementary Fig. 24 (a), concentration 20 μM
  cell viability, mean: 43.1523
[3]; Supplementary Fig. 24 (a), concentration 30 μM
  cell viability, mean: 31.9252
[3]; Supplementary Fig. 24 (a), concentration 50 μM
  cell viability, mean: 21.7758
[3]; Supplementary Fig. 24 (a), concentration 100 μM
  cell viability, mean: 11.35
[3]; Supplementary Fig. 24 (a), concentration 200 μM
  cell viability, mean: 7.117
[3]; incubated 2 h, then blank medium 48 h, MTT, read-out: IC50 HeLa
  IC50: 14.6 ± 1.24 µM
[3]; incubated 48 h, MTT, read-out: IC50 HeLa
  IC50: 6.76 ± 0.68 µM
